Source: article PMC5924614 (European journal of medicinal chemistry, 2018)

Assays:
[1] = test system: NCI-H2228 cells; experiment: NCI-H2228 cell proliferation, CellTiter-Glo cell viability assay; type: cell-based, human
[2] = test system: STAT3 tyrosine 705 (Y705) phosphorylation; experiment: STAT3 Y705 phosphorylation in SU-DHL-1 cells by western blot; type: cell-based, human; details: for inhibition at 0.1 µM: Homo sapiens, SU-DHL-1, read-out: inhibition of STAT3 Y705 phosphorylation; for treatment time after which p-STAT3 was significantly inhibited: SU-DHL-1 cells, 30 nM, time course
[3] = test system: SU-DHL-1 cells; experiment: cell death / toxicity observed in SU-DHL-1 cells during blot experiments; type: cell-based
[4] = target: NPM-ALK fusion protein (Homo sapiens, UniProt P06748+Q9UM73); experiment: NPM-ALK fusion protein levels in SU-DHL-1 cells by western blot; type: cell-based; details: for duration of NPM-ALK degradation and ALK signaling inhibition / time at which significant (>50%) NPM-ALK degradation was achieved / time of maximum degradation of NPM-ALK / effect on fused ALK (NPM-ALK) protein levels: 30 nM; for duration of NPM-ALK degradation and ALK signaling inhibition / time at which significant (>50%) NPM-ALK degradation was achieved / time of maximum degradation of NPM-ALK: time course; for reduction of the ALK fusion protein levels: 100 nM; for reduction of the ALK fusion protein levels / effect on fused ALK (NPM-ALK) protein levels: 16 h; for hook effect: up to 100 nM degrader
[5] = test system: EML4-ALK fusion protein variant 3; details: NCI-H2228 cells; for duration of EML4-ALK degradation and signaling pathway inhibition / time of maximum degradation of EML4-ALK: 60 nM, time course; for reduction of EML4-ALK protein levels / effect on EML4-ALK protein levels: 100 nM, 16 h
[6] = test system: ALK tyrosine 1507 (Y1507) phosphorylation (Y527 in NPM-ALK); experiment: ALK Y1507 phosphorylation in SU-DHL-1 cells by western blot; type: cell-based, human; details: for inhibition at 0.1 µM: Homo sapiens, read-out: inhibition of ALK Y1507 phosphorylation; for treatment time after which p-ALK was significantly inhibited: SU-DHL-1 cells, 30 nM, time course
[7] = mouse pharmacokinetic; type: in vivo, male Swiss Albino mice; details: single 50 mg/kg IP
[8] = tolerability in the mouse PK study; details: 50 mg/kg IP
[9] = test system: ALK downstream signaling (p-ALK, p-STAT3); experiment: ALK downstream signaling pathway inhibition in SU-DHL-1 cells by western blot; type: cell-based, human; details: 30 nM
[10] = test system: SU-DHL-1 cells; experiment: SU-DHL-1 cell proliferation, CellTiter-Glo luminescent cell viability assay; type: cell-based, human; details: 3 days

| Compound | sensitivity of proliferation in comparison with SU-DHL-1 cells [1] | inhibition at 0.1 µM [2] | treatment time after which p-STAT3 was significantly inhibited [2] | concentrations leading to significant cell death / toxic to cells [3] | duration of NPM-ALK degradation and ALK signaling inhibition [4] | time at which significant (>50%) NPM-ALK degradation was achieved [4] | time of maximum degradation of NPM-ALK [4] | reduction of the ALK fusion protein levels [4] | hook effect [4] | duration of EML4-ALK degradation and signaling pathway inhibition [5] | time of maximum degradation of EML4-ALK [5] | reduction of EML4-ALK protein levels [5] | inhibition at 0.1 µM [6] | treatment time after which p-ALK was significantly inhibited [6] | effect on fused ALK (NPM-ALK) protein levels [4] | effect on EML4-ALK protein levels [5] | cell growth inhibition [10] | fold less active than corresponding degrader in signaling pathway inhibition [9] | further results |
| --- | --- | --- | --- | --- | --- | --- | --- | --- | --- | --- | --- | --- | --- | --- | --- | --- | --- | --- | --- |
| Cc1cc(Nc2ncc(Cl)c(Nc3ccccc3S(=O)(=O)C(C)C)n2)c(OC(C)C)cc1C1CCN(CC(=O)NCCOCCOCCOCCOCCOCCNc2cccc3c2C(=O)N(C2CCC(=O)NC2=O)C3=O)CC1 (stereo not shown) [Compound 5, 2-(4-(4-((5-Chloro-4-((2-(isopropylsulfonyl)phenyl)amino)pyrimidin-2-yl)amino)-5-isopropoxy-2-methylphenyl)piperidin-1-yl)-N-(17-((2-(2,6-dioxopiperidin-3-yl)-1,3-dioxoisoindolin-4-yl)amino)-3,6,9,12,15-pentaoxaheptadecyl)acetamide] | less sensitive | > 90% | 2 h | above 100 nM | at least 24 hours | 4 h | 16 h | Over 90% | did not observe the “hook effect” | at least 24 hours | 16 h | Over 90% | > 90% | 2 h |  |  |  |  |  |
| Cc1cc(Nc2ncc(Cl)c(Nc3ccccc3S(=O)(=O)C(C)C)n2)c(OC(C)C)cc1C1CCN(CC(=O)NCCNc2cccc3c2C(=O)N(C2CCC(=O)NC2=O)C3=O)CC1 (stereo not shown) [Compound 6, 2-(4-(4-((5-chloro-4-((2-(isopropylsulfonyl)phenyl)amino)pyrimidin-2-yl)amino)-5-isopropoxy-2-methylphenyl)piperidin-1-yl)-N-(2-((2-(2,6-dioxopiperidin-3-yl)-1,3-dioxoisoindolin-4-yl)amino)ethyl)acetamide] | less sensitive | > 90% | 2 h | above 100 nM | at least 24 hours | 4 h | 16 h | Over 90% | did not observe the “hook effect” | at least 24 hours | 16 h | Over 90% | > 90% | 2 h |  |  |  |  | highest plasma concentration [7]: 3,000 nM; time of highest plasma concentration post dosing [7]: 2 h; clinical signs [8]: no clinical signs were observed; tolerability [8]: well tolerated |
| Cc1cc(Nc2ncc(Cl)c(Nc3ccccc3S(=O)(=O)C(C)C)n2)c(OC(C)C)cc1C1CCNCC1 [ceritinib, reference compound] |  |  |  | above 100 nM |  |  |  |  |  |  |  |  |  |  | did not significantly change | did not significantly affect |  |  | inhibition of downstream signaling compared with the degraders [9]: more potent |
| Cc1cc(Nc2ncc(Cl)c(Nc3ccccc3S(=O)(=O)C(C)C)n2)c(OC(C)C)cc1C1CCN(CC(=O)NCCOCCOCCOCCOCCOCCNc2cccc3c2C(=O)N(C2CCC(=O)N(C)C2=O)C3=O)CC1 (stereo not shown) [Compound 7, 2-(4-(4-((5-Chloro-4-((2-(isopropylsulfonyl)phenyl)amino)pyrimidin-2-yl)amino)-5-isopropoxy-2-methylphenyl)piperidin-1-yl)-N-(17-((2-(1-methyl-2,6-dioxopiperidin-3-yl)-1,3-dioxoisoindolin-4-yl)amino)-3,6,9,12,15-pentaoxaheptadecyl)acetamide] | less sensitive |  |  |  |  |  |  |  |  |  |  |  |  |  | did not reduce | did not significantly affect | incomplete inhibition | over 10 fold |  |
| Cc1cc(Nc2ncc(Cl)c(Nc3ccccc3S(=O)(=O)C(C)C)n2)c(OC(C)C)cc1C1CCN(CC(=O)NCCNc2cccc3c2C(=O)N(C2CCC(=O)N(C)C2=O)C3=O)CC1 (stereo not shown) [Compound 8, 2-(4-(4-((5-chloro-4-((2-(isopropylsulfonyl)phenyl)amino)pyrimidin-2-yl)amino)-5-isopropoxy-2-methylphenyl)piperidin-1-yl)-N-(2-((2-(1-methyl-2,6-dioxopiperidin-3-yl)-1,3-dioxoisoindolin-4-yl)amino)ethyl)acetamide] | less sensitive |  |  |  |  |  |  |  |  |  |  |  |  |  | did not reduce | did not significantly affect | incomplete inhibition | over 10 fold |  |
